Data taken from ChEMBL document CHEMBL5046322, “Discovery of SHR2415, a Novel Pyrrole-Fused Urea Scaffold ERK1/2 Inhibitor” (ACS Med Chem Lett, 2022).

What was measured:
[1] = Half life in ICR mouse at 2 mg/kg, po; conditions: in vivo
[2] = AUC (0 to t) in Sprague-Dawley rat at 2 mg/kg, po; assay type: ADME, organism-based; set-up: dose 2 mg/kg; conditions: in vivo
[3] = Oral bioavailability in Sprague-Dawley rat at 2 mg/kg; assay type: ADME, organism-based; conditions: in vivo
[4] = Oral bioavailability in ICR mouse at 2 mg/kg; assay type: ADME, organism-based; conditions: in vivo
[5] = system: COLO 205; test: Antiproliferative activity against human COLO 205 cells assessed as reduction in cell viability for 72 hrs by cell titre glo luminescence assay; assay type: functional, cell-based
[6] = Cmax in Sprague-Dawley rat plasma at 1 mg/kg, iv and measured after 24 hrs by LC/MS/MS analysis; assay type: ADME, organism-based; set-up: route intravenous, dose 1 mg/kg, time 24 hrs
[7] = Clearance in Sprague-Dawley rat plasma at 1 mg/kg, iv and measured after 24 hrs by LC/MS/MS analysis; assay type: ADME, organism-based
[8] = Half life in Sprague-Dawley rat at 2 mg/kg, po; conditions: in vivo
[9] = Cmax in ICR mouse plasma at 1 mg/kg, iv and measured after 24 hrs by LC/MS/MS analysis; assay type: ADME, organism-based; set-up: route intravenous, dose 1 mg/kg, time 24 hrs
[10] = Clearance in ICR mouse plasma at 1 mg/kg, iv and measured after 24 hrs by LC/MS/MS analysis mg/kg, iv; assay type: ADME, organism-based
[11] = AUC (0 to t) in ICR mouse at 2 mg/kg, po; assay type: ADME, organism-based; set-up: dose 2 mg/kg; conditions: in vivo
[12] = biological target: Mitogen-activated protein kinase 1 (Homo sapiens, UniProt P28482); test: Inhibition of ERK2 (unknown origin) measured after 2 hr by ADP-glo assay
Chain of Mitogen-activated protein kinase 1 (P28482 whole entry): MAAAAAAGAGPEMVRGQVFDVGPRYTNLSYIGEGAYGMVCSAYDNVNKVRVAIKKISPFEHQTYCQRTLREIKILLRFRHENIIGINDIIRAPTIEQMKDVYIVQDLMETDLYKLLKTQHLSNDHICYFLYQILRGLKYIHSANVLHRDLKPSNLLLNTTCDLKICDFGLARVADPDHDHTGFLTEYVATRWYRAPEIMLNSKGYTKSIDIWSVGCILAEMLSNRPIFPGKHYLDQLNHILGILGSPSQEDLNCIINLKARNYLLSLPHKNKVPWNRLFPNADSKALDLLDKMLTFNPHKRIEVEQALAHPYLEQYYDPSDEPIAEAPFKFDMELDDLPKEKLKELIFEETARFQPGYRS

[13] = biological target: Cytochrome P450 2C19 (Homo sapiens, UniProt P33261); test: Inhibition of CYP2C19 in human liver microsomes
Chain of Cytochrome P450 2C19 (P33261 whole entry): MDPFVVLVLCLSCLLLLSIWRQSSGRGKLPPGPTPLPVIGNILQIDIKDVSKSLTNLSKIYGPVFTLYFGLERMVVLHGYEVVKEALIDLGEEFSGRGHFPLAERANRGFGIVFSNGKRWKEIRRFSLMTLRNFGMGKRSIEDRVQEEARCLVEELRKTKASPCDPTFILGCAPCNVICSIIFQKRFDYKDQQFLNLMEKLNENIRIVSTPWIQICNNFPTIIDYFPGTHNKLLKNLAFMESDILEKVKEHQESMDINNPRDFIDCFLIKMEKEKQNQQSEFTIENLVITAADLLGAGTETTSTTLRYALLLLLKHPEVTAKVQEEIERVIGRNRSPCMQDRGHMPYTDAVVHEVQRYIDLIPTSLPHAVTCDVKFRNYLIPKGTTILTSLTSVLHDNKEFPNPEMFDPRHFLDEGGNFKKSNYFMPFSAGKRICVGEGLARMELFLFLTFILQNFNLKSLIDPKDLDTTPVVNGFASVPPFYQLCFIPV

[14] = biological target: T1, Cytochrome P450 1A2 (Homo sapiens, UniProt P05177); test: Inhibition of CYP1A2 in human liver microsomes
T1 sequence (P05177 whole entry): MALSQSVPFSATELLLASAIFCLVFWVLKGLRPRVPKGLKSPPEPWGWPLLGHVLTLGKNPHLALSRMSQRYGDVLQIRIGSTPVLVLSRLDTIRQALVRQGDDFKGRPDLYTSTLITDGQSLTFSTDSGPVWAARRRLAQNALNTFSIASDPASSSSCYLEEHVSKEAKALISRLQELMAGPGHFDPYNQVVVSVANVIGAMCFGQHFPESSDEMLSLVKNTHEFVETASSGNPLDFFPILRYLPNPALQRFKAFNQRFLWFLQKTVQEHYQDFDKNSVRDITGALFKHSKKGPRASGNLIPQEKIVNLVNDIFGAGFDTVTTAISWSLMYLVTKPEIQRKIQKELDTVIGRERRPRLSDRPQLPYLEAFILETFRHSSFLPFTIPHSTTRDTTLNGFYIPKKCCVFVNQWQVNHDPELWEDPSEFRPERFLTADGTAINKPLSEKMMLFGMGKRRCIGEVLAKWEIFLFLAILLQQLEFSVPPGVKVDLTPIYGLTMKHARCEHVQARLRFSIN

[15] = biological target: Cytochrome P450 2C9 (Homo sapiens, UniProt P11712); test: Inhibition of CYP2C9 in human liver microsomes
Chain of Cytochrome P450 2C9 (P11712 whole entry): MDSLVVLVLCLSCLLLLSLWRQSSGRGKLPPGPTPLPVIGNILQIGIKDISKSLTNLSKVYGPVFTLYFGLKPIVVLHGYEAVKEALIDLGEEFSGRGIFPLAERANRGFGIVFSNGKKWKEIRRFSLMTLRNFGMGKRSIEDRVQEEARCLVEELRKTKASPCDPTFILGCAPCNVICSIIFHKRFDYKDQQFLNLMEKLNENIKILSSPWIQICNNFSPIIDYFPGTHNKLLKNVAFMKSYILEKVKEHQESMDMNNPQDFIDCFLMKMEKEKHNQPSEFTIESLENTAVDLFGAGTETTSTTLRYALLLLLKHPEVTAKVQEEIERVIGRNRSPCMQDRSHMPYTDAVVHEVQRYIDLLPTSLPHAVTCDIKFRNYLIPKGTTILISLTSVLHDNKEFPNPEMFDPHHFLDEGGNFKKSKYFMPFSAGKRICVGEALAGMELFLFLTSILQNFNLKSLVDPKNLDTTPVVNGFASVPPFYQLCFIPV

[16] = biological target: Cytochrome P450 3A4 (Homo sapiens, UniProt P08684); test: Inhibition of CYP3A4 in human liver microsomes
Chain of Cytochrome P450 3A4 (P08684 whole entry): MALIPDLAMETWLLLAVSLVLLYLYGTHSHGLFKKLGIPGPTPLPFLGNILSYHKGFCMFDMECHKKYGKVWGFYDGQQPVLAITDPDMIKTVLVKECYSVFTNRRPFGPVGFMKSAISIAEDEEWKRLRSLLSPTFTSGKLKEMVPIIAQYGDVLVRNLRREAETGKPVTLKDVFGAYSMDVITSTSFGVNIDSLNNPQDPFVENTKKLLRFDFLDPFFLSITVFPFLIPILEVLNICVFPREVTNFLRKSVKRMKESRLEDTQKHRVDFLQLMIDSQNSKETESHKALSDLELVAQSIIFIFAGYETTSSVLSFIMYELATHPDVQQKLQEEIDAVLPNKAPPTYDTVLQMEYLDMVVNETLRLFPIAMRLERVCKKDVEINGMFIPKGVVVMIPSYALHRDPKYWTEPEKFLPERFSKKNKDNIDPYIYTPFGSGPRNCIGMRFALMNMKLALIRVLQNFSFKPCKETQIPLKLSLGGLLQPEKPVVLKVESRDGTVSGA

[17] = biological target: Cytochrome P450 2D6 (Homo sapiens, UniProt P10635); test: Inhibition of CYP2D6 in human liver microsomes
Chain of Cytochrome P450 2D6 (P10635 whole entry): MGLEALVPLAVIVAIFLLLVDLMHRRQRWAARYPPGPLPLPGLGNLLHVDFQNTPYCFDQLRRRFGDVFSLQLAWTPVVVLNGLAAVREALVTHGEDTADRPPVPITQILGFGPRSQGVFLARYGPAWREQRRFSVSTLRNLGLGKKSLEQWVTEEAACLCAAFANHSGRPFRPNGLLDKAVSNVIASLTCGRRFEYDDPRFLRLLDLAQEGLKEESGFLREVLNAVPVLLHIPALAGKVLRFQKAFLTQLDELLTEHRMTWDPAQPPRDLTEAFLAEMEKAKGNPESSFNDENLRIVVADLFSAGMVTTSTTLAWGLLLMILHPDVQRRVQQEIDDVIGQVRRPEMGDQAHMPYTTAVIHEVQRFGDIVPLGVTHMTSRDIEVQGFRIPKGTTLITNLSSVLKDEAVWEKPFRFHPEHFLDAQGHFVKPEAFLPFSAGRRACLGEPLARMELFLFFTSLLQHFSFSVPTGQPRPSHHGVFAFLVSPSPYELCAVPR

[18] = Homo sapiens, COLO 205, 72 h, read-out: IC50

IC50 [5, 18]	IC50 ([5]; colo 205)	IC50 [12]	Compound	also measured
77.1 nM			Cc1cnc(Nc2ccnn2C)nc1-c1cc2n(c1)C(=O)N([C@H](CO)c1cccc(Cl)c1)CC2	half-life [1]: 49.2 min; AUC(0-t) [2]: 258 ng·h/mL; bioavailability [3]: 29.4%; bioavailability [4]: 54%; Cmax [6]: 84.3 ng/mL; clearance [7]: 38.5 mL/min/kg; half-life [8]: 96 min; Cmax [9]: 275 ng/mL; clearance [10]: 63.1 mL/min/kg; AUC(0-t) [11]: 277 ng·h/mL
	Not Active	4200 nM	Cn1nccc1Nc1nccc(-c2cn3c(n2)CN([C@H](CO)c2cccc(Cl)c2)C3=O)n1	
> 10000 nM		240 nM	Cn1nccc1Nc1nccc(N2CCN(C(CO)c3cccc(Cl)c3)C(=O)C2)n1 (racemic)	
104 nM		5.8 nM	O=C1N([C@H](CO)c2cccc(Cl)c2)Cc2cc(-c3nc(NC4CCOCC4)ncc3Cl)cn21	
293 nM			Cc1cnc(Nc2ccnn2C)nc1-c1cc2n(c1)C(=O)N(Cc1ccc(F)c(F)c1)C2	
31.9 nM			Cn1nccc1Nc1ncc(Cl)c(-c2cc3n(c2)C(=O)N([C@H](CO)c2cccc(Cl)c2)C3)n1	IC50 [13]: > 5 µM; IC50 [14]: > 5 µM; IC50 [15]: > 5 µM; IC50 [16]: > 5 µM; IC50 [17]: 350 nM
	Not Active	4830 nM	Cc1cnc(Nc2ccnn2C)nc1-c1ccc2c(c1)CN([C@H](CO)c1cccc(Cl)c1)C2=O	
94.5 nM		1.5 nM	CNC[C@H](c1cccc(Cl)c1)N1Cc2cc(-c3nc(Nc4ccnn4C)ncc3C)cn2C1=O	
	Not Active	130 nM	Cc1cnc(Nc2ccnn2C)nc1-c1cn2c(c1F)CN([C@H](CO)c1cccc(Cl)c1)C2=O	
	Not Active	18.3 nM	Cc1cnc(Nc2ccnn2C)nc1-c1cc2n(c1)C(=O)N([C@H](CN)c1cccc(Cl)c1)C2	
94.9 nM		9.5 nM	Cc1cnc(Nc2ccnn2C)nc1-c1cc2n(c1)C(=O)N([C@H](CO)c1ccc(F)c(Cl)c1)C2	
	Not Active		C[C@H](CO)Nc1ncc(Cl)c(-c2cc3n(c2)C(=O)N([C@H](CO)c2cccc(Cl)c2)C3)n1	
